Data reported in patent US20130101615A1, “METHODS FOR PREVENTING OR TREATING A DISEASE OR CONDITION ASSOCIATED WITH MYCOBACTERIUM AVIUM SUBSPECIES PARATUBERCULOSIS” (priority 2005, published 2013).
Like-named read-outs stand apart in the source and are kept apart here.

What was measured:
[1] = system: MAP Dominic (ATCC 43545), isolated from human with Crohn's disease; format: cell-based, Mycobacterium avium subspecies paratuberculosis; conditions: for %-ΔcGI: Example 5
[2] = system: MAP ATCC 19698 (bovine); format: cell-based, Mycobacterium avium subspecies paratuberculosis; conditions: MAP ATCC 19698; for %-ΔcGI: Example 5
[3] = system: M. avium ATCC 25291; format: cell-based, M. avium subspecies avium; conditions: M. avium ATCC 25291; for %-ΔcGI: Example 5
[4] = system: M. avium 101; format: cell-based, M. avium subspecies avium; conditions: for %-ΔcGI: Example 5

O=C1CCC(N2C(=O)c3ccccc3C2=O)C(=O)N1 (racemic) [Thalidomide (±), thalidomide]
%-ΔcGI ([1]; 1 μg/ml, MAP Dominic Expt A): −2% | %-ΔcGI ([1]; 1 μg/ml, MAP Dominic Expt B): 0% | %-ΔcGI ([1]; 4 μg/ml, MAP Dominic Expt A): −4% | %-ΔcGI ([1]; 4 μg/ml, MAP Dominic Expt B): −2% | %-ΔcGI ([1]; 16 μg/ml, MAP Dominic Expt A): −9% | %-ΔcGI ([1]; 16 μg/ml, MAP Dominic Expt B): −5% | %−ΔcGI (percent decrease in cumulative GI) ([1]; 64 μg/ml, MAP Dominic): 31% | %-ΔcGI ([1]; 64 μg/ml, MAP Dominic Expt A): −31% | %-ΔcGI ([1]; 64 μg/ml, MAP Dominic Expt B): −13% | %-ΔcGI ([2]; 1 μg/ml): 4% | %-ΔcGI ([2]; 4 μg/ml): 8% | %-ΔcGI ([2]; 16 μg/ml): −7% | %−ΔcGI (percent decrease in cumulative GI) ([2]; 64 μg/ml): 26% | %-ΔcGI ([2]; 64 μg/ml): −26% | %-ΔcGI ([3]; 1 μg/ml): 34% | %-ΔcGI ([3]; 4 μg/ml): 37% | %-ΔcGI ([3]; 16 μg/ml): 28% | %-ΔcGI ([3]; 64 μg/ml): 25% | effect on growth, in words [3]: no dose-dependent inhibition | effect on growth, in words [4]: no dose-dependent inhibition | %-ΔcGI ([4]; 1 μg/ml): −20% | %-ΔcGI ([4]; 4 μg/ml): −5% | %-ΔcGI ([4]; 16 μg/ml): 6% | %-ΔcGI ([4]; 64 μg/ml): −14%

Nc1ccc(O)c(C(=O)O)c1 [5-ASA, 5-aminosalicylic acid]
effect on proliferation / cumulative growth index, in words [2]: inhibited the proliferation of MAP (ATCC 19698) in a dose-dependent manner | effect on growth, in words [4]: little effect

Nc1ccc(C(=O)O)c(O)c1 [p-aminosalicylic acid]
effect on proliferation / cumulative growth index, in words [2]: inhibited the proliferation of MAP (ATCC 19698) in a dose-dependent manner

Nc1ccc(S(=O)(=O)Nc2ccccn2)cc1 [sulfapyridine]
effect on proliferation / cumulative growth index, in words [2]: little effect on the cumulative growth index of MAP | effect on growth, in words [4]: inhibited M. avium 101 in a dose-dependent manner

O=C(O)c1cc(/N=N/c2ccc(S(=O)(=O)Nc3ccccn3)cc2)ccc1O [sulfasalazine]
effect on proliferation / cumulative growth index, in words [2]: little effect on the cumulative growth index of MAP
